From patent publication US8748109B2, “Method for the detection of organ or tissue injury” (priority 2009, dated 2014)
Residues, ends and D or L forms follow the SMILES beside them. *: point of attachment. Cbz = O=C(OCc1ccccc1)*; CH2F = FC*

Experiments:
[1] = tested on: Total hepatic glutathione (GSH+GSSG); assay: Determination of hepatic glutathione levels; format: in vivo, mouse; parameters: key to GSH depletion: (+) indicates significant; (−) non-significant hepatic GSH depletion compared to control animals; conditions: for GSH depletion: hepatic, APAP 530 mg/kg i.p., CD-1 mice
Experimental: Total hepatic glutathione (GSH+GSSG) levels were determined as described previously (29).

DNA laddering = assay: Hepatic DNA laddering (agarose gel); format: in vivo, mouse; parameters: key: (+) indicates positive detection of DNA laddering or processing of caspase-3 by western blot (WB)
Experimental: (§1) Caspase-3 western blotting was carried out as described previously (30) on mouse liver cytosol fractions prepared from snap frozen livers. DNA was isolated from snap frozen livers using the Sigma-Aldrich GeneElute kit according to the manufacturer's instructions. DNA laddering was visualised through ethidium bromide staining following separation on a 1% agarose gel. […] The number of cleaved caspase-3 positive cells (cytoplasmic staining) was evaluated semi-quantitatively (− no positive cells; + scattered positive cells; ++ moderate number of positive cells, +++ numerous positive cells).

caspase-3 = assay: Caspase-3 western blotting of liver cytosol; format: in vivo, mouse; parameters: key to Caspase 3 processing (WB): (+) indicates positive detection of DNA laddering or processing of caspase-3 by western blot (WB); conditions: for Caspase 3 processing (WB): hepatic, APAP 530 mg/kg i.p., CD-1 mice
Experimental: as §1

HMGB1 [2] = assay: Total serum HMGB1 by ELISA; format: in vivo, mouse; conditions: for Serum Biomarker elevation Total HMGB1: APAP 530 mg/kg i.p., CD-1 mice
HMGB1 [3] = assay: Serum hypo- and hyper-acetylated HMGB1 by LC-MS/MS (relative values); format: in vivo, mouse; conditions: APAP 530 mg/kg, mice, post dose, 0-24 hr time course
Experimental: Overnight immunoprecipitations (IP) of serum K18 and HMGB1 (5 μg antibody and protein G separation) were subjected to SDS-PAGE. Protein bands were excised from Coomassie Blue-stained gels, destained by incubation with 50% acetonitrile/50 mM ammonium bicarbonate followed by vacuum drying. Gel pieces were rehydrated in 50 mM ammonium bicarbonate containing 40 ng/μL modified trypsin (K18) or GluC (HMGB1) and incubated for 16 hr at 37° C. Peptides were extracted by incubation with 2 changes of 60% acetonitrile/1% trifluoroacetic acid and the resulting supernatants were again dried. Extracts were desalted using C18 ZipTips according to the manufacturer's instructions and reconstituted in 5% acetonitrile/0.1% trifluoroacetic acid. For LC-MS/MS analysis, samples were delivered into a QSTAR Pulsar i hybrid mass spectrometer (Applied Biosystems) by automated in-line liquid chromatography (integrated LC-Packings System, 5 mm C18 nano-precolumn and 75 μm×15 cm C18 PepMap column (Dionex, Calif., USA) via a nano-electrospray source head and 10 μm inner diameter PicoTip (New Objective, USA). A gradient from 5% acetonitrile/0.05% trifluoroacetic acid (v/v) to 48% acetonitrile/0.05% trifluoroacetic acid (v/v) in 60 min was applied at a flow rate of […], MS and MS/MS spectra were acquired automatically in positive ion mode using information-dependent acquisition (Analyst, Applied Biosystems). Database searching was performed using Protein Pilot 2 (Applied Biosystems) with the latest version of the SwissProt database, with the confidence level set at 80%, and with biological modifications allowed. Quantification of murine serum full length K18 and caspase dependent K18 fragments was accomplished through construction of standard curves generated with synthetic peptide standards spiked into and could be recovered from control serum and compared to immunoassay (17). The full length K18 standard ([…]) was designed to span the caspase 3, 7, 9 cleavage site, whereas the abbreviated peptide ([…]) is only derived from K18 fragments with the caspase cleavage site cut (limit of detection; 300 fmol/ml. coefficient of variation; <10%). HMGB1 and its hyper-acetylated derivative were quantified by spectral counting of the peptide peak, since no synthetic standards were available, and are consequently presented only as relative values and compared to total levels determined by ELISA according to the manufacturer's instructions (limit of detection; 0.1 ng/ml. coefficient of variation; <10%).

ALT = assay: Serum alanine transaminase (ALT) activity; format: in vivo, mouse; conditions: for Serum Biomarker elevation ALT activity: APAP 530 mg/kg i.p., CD-1 mice
HMGB-1 = tested on: HMGB-1
From the text: (A) Schematic overview of the location of cysteine 106 within the cytokine domain of murine HMGB-1 which is characterized by MS/MS. […] MS/MS and western figures are representative of 6 mice per group.

apoptotic markers = assay: Effect of Z-VAD.fmk on APAP-induced apoptotic markers (DNA laddering, pro-caspase 3 processing, serum caspase cleaved K18); format: in vivo, mouse; conditions: Z-VAD.fmk 10 mg/kg i.v. 15 min pre-APAP (530 mg/kg; 5 hr), compared with APAP alone
Experimental: as §1
Overnight immunoprecipitations (IP) of serum K18 and HMGB1 (5 μg antibody and protein G separation) were subjected to SDS-PAGE. […] Quantification of murine serum full length K18 and caspase dependent K18 fragments was accomplished through construction of standard curves generated with synthetic peptide standards spiked into and could be recovered from control serum and compared to immunoassay (17). […] HMGB1 and its hyper-acetylated derivative were quantified by spectral counting of the peptide peak, since no synthetic standards were available, and are consequently presented only as relative values and compared to total levels determined by ELISA according to the manufacturer's instructions (limit of detection; 0.1 ng/ml. coefficient of variation; <10%).

male CD-1 mice = assay: Histological assessment of hepatotoxicity (H&E liver sections, hepatocyte loss score); conditions: APAP co-dosed with Z-VAD.fmk, 5 hr
[4] = APAP 530 mg/kg, mice, 10 hr post treatment
[5] = APAP 530 mg/kg, mice, 3-24 hr time course

## CC(=O)Nc1ccc(O)cc1 [APAP, Acetaminophen]
[1]; 3 hr
  GSH depletion: +
[1]; 5 hr
  GSH depletion: +
[1]; 10 hr
  GSH depletion: −
[1]; 15 hr
  GSH depletion: −
[1]; 20 hr
  GSH depletion: −
[1]; 24 hr
  GSH depletion: −
DNA laddering; [4]
  DNA laddering: no evidence
DNA laddering; hepatic, APAP 530 mg/kg i.p., CD-1 mice, 3 hr
  DNA laddering: +
DNA laddering; hepatic, APAP 530 mg/kg i.p., CD-1 mice, 5 hr
  DNA laddering: +
caspase-3; [4]
  caspase 3 processing: no evidence
caspase-3; 3 hr
  Caspase 3 processing (WB): +
caspase-3; 5 hr
  Caspase 3 processing (WB): +
caspase-3; 10 hr
  Caspase 3 processing (WB): +
HMGB1 [2]; 3 hr
  Serum Biomarker elevation Total HMGB1: +
HMGB1 [2]; 5 hr
  Serum Biomarker elevation Total HMGB1: +
HMGB1 [2]; 10 hr
  Serum Biomarker elevation Total HMGB1: +
HMGB1 [2]; 15 hr
  Serum Biomarker elevation Total HMGB1: +
HMGB1 [2]; 20 hr
  Serum Biomarker elevation Total HMGB1: −
HMGB1 [2]; 24 hr
  Serum Biomarker elevation Total HMGB1: −
HMGB1 [2]; [5]
  last time point with serum HMGB1 elevation: ≤ 15 h
HMGB1 [3]
  time of first significant elevation of necrosis-associated (hypo-acetylated) serum HMGB1: 3 h
  time of first significant increase of immune cell derived (hyper-acetylated) serum HMGB1: 5 h
  time of peak of immune cell derived (hyper-acetylated) serum HMGB1: 15 h
  time of return to control levels of immune cell derived (hyper-acetylated) serum HMGB1: ≤ 24 h
ALT; 3 hr
  Serum Biomarker elevation ALT activity: +
ALT; 5 hr
  Serum Biomarker elevation ALT activity: +
ALT; 10 hr
  Serum Biomarker elevation ALT activity: +
ALT; 15 hr
  Serum Biomarker elevation ALT activity: +
ALT; 20 hr
  Serum Biomarker elevation ALT activity: +
ALT; 24 hr
  Serum Biomarker elevation ALT activity: +
ALT; [5]
  increased serum ALT activity, time course: observed over the entire time course
HMGB-1; fasted mice dosed with APAP (530 mg/kg; 5 h)
  serum molecular form of HMGB-1 present: the only serum molecular form of HMGB-1 present was the reduced form
HMGB-1; fed mice dosed with APAP (530 mg/kg; 5 h)
  predominant form of HMGB-1 in sera: oxidized, immune-tolerant form
HMGB-1; mouse, in vivo
  toxicity: displaying toxicity

## COC(=O)C[C@H](NC(=O)[C@H](C)NC(=O)[C@@H](NC(=O)OCc1ccccc1)C(C)C)C(=O)CF [Z-VAD.fmk] (Cbz-Val-Ala-Asp(OMe)-CH2F)
[1]; Z-VAD.fmk pre-treatment, APAP 530 mg/kg, 5 hr
  effect on APAP-mediated GSH depletion: no effect
ALT; Z-VAD.fmk and APAP (530 mg/kg; 5 hr)
  serum ALT level compared with APAP alone: increased
HMGB-1; Z-VAD.fmk in APAP-treated, fed mice
  molecular form of HMGB1 detected: only the reduced molecular form
Apoptotic markers
  detection of apoptotic markers in APAP dosed mice: completely inhibited
Male CD-1 mice
  apoptotic hepatocyte death by histology and immunohistology for cleaved caspase-3: no evidence
Male CD-1 mice; score 0-5, higher than APAP alone (p<0.05)
  Histological scoring of centrilobular hepatocyte loss: 2-3
